We go through two compounds from ChEMBL document CHEMBL1141970, “Synthesis and chloroquine-enhancing activity of Na-deacetyl-ferrocenoyl-strychnobrasiline” (2005).

Test [1] has as its system Plasmodium falciparum. Description: Percent parasitemia after 0.75 mg/kg dose. Format: functional, K1.
In test [2] the test system is Plasmodium falciparum. Description: Percent parasitaemia after 10 mg/kg oral dose. It counts as functional, K1.
The test system of test [3] is Plasmodium falciparum. Description: Percent inhibition of Plasmodium falciparum FCM29 after 10 mg/kg oral dose. It counts as functional.
Test [4] deals with Plasmodium falciparum. In words: Percent inhibition of Plasmodium falciparum FCM29 after 0.75 mg/kg subcutaneous dose. It counts as functional. The note with it: sc.
Test [5] deals with Plasmodium falciparum. In words: Percent parasitemia after 5 mg/kg peroral dose. Format: functional, organism-based. Particulars: K1, at 5 mg/kg. Details: dose 5 mg/kg.
The test system of test [6] is Plasmodium falciparum. In words: Percent inhibition of Plasmodium falciparum FCM29 after 5 mg/kg oral dose. Format: functional, organism-based. Details: dose 5 mg/kg. The note with it: K1, at 5 mg/kg.

For `CCN(CC)CCCC(C)Nc1ccnc2cc(Cl)ccc12` (stereo not drawn) [CHLOROQUINE], the Parasitemia in test [1] was determined as 32.2%; in test [2] it was 0.1%. This compound gave an inhibition in vivo at 10 mg/kg in test [3] of 99.8%. The compound further came in with an inhibition in vivo at 0.75 mg/kg in test [4] of 17.2%.
On to “Ferrocenoyl-strychnobrasiline derivative”, for which the Parasitemia in test [5] was 36.1%; in test [2] (K1, at 10 mg/kg), 38.4%. For the same compound, the inhibition in test [6] was determined as 7.2%; in test [3] (at 10 mg/kg) it was 1.3%.

As usually defined, the inhibition in vivo is the percentage by which the read-out fell short of the control. High values mean a response far below the control, low ones a response near the control. For orientation: inhibition means how much of the control response was suppressed.
